Data published in PubChem BioAssay (NCI).
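All cell lines were grown in 96-well plates and treated with compound for 48 hours. Definition used: TGI = concentration required for complete inhibition of growth.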

How the values were obtained:
Test in all cases: DTP human tumour cell line panel, 48 h
SNB-75 CNS = system: SNB-75 CNS
SK-MEL-28 melanoma = system: SK-MEL-28 melanoma
SK-OV-3 ovarian = system: SK-OV-3 ovarian
A498 renal = system: A498 renal
M14 melanoma = system: M14 melanoma
NCI-H522 lung = system: NCI-H522 lung
K-562 leukemia = system: K-562 leukemia
SR leukemia = system: SR leukemia
SW-620 colon = system: SW-620 colon
A549 NSCLC = system: A549 NSCLC
UACC-62 melanoma = system: UACC-62 melanoma
MALME-3M melanoma = system: MALME-3M melanoma
HCT-116 colon = system: HCT-116 colon
DLD-1 colon = system: DLD-1 colon
786-0 renal = system: 786-0 renal
UO-31 renal = system: UO-31 renal
OVCAR-8 ovarian = system: OVCAR-8 ovarian
SNB-19 CNS = system: SNB-19 CNS
OVCAR-4 ovarian = system: OVCAR-4 ovarian
DMS 273 small cell lung = system: DMS 273 small cell lung
MOLT-4 leukemia = system: MOLT-4 leukemia
NCI-H460 lung = system: NCI-H460 lung
CCRF-CEM leukemia = system: CCRF-CEM leukemia
IGROV1 ovarian = system: IGROV1 ovarian
SNB-78 CNS = system: SNB-78 CNS
LOX IMVI melanoma = system: LOX IMVI melanoma
COLO 205 colon = system: COLO 205 colon
HT29 colon = system: HT29 colon
OVCAR-3 ovarian = system: OVCAR-3 ovarian
UACC-257 melanoma = system: UACC-257 melanoma
SF-295 CNS = system: SF-295 CNS
SK-MEL-5 melanoma = system: SK-MEL-5 melanoma
EKVX NSCLC = system: EKVX NSCLC
HOP-92 NSCLC = system: HOP-92 NSCLC
SK-MEL-2 melanoma = system: SK-MEL-2 melanoma
NCI-H226 lung = system: NCI-H226 lung
U251 CNS = system: U251 CNS
KM12 colon = system: KM12 colon
TK-10 renal = system: TK-10 renal
RPMI-8226 leukemia = system: RPMI-8226 leukemia
DMS 114 small cell lung = system: DMS 114 small cell lung
HOP-62 NSCLC = system: HOP-62 NSCLC
LXFL 529 NSCLC = system: LXFL 529 NSCLC
SF-268 CNS = system: SF-268 CNS
SN12C renal = system: SN12C renal
M19-MEL melanoma = system: M19-MEL melanoma
CAKI-1 renal = system: CAKI-1 renal
ACHN renal = system: ACHN renal
OVCAR-5 ovarian = system: OVCAR-5 ovarian
RXF 393 renal = system: RXF 393 renal
HL-60(TB) leukemia = system: HL-60(TB) leukemia
HCT-15 colon = system: HCT-15 colon
KM20L2 colon = system: KM20L2 colon
HCC-2998 colon = system: HCC-2998 colon
HOP-18 NSCLC = system: HOP-18 NSCLC
NCI-H23 lung = system: NCI-H23 lung
SF-539 CNS = system: SF-539 CNS
RXF-631 renal = system: RXF-631 renal
XF 498 CNS = system: XF 498 CNS

CCCCCCCCCCCC(=O)OCCOCCOCCOCCOCCOCc1ccccc1
TGI (SNB-75 CNS): > 100 µM | TGI (SK-MEL-28 melanoma): > 100 µM | TGI (SK-OV-3 ovarian): > 100 µM | TGI (A498 renal): > 100 µM | TGI (M14 melanoma): > 100 µM | TGI (NCI-H522 lung): > 100 µM | TGI (K-562 leukemia): > 100 µM | TGI (SR leukemia): > 100 µM | TGI (SW-620 colon): > 100 µM | TGI (A549 NSCLC): > 100 µM | TGI (UACC-62 melanoma): > 100 µM | TGI (MALME-3M melanoma): > 100 µM | TGI (HCT-116 colon): > 100 µM | TGI (DLD-1 colon): > 100 µM | TGI (786-0 renal): > 100 µM | TGI (UO-31 renal): > 100 µM | TGI (OVCAR-8 ovarian): > 100 µM | TGI (SNB-19 CNS): > 100 µM | TGI (OVCAR-4 ovarian): > 100 µM | TGI (DMS 273 small cell lung): > 100 µM | TGI (MOLT-4 leukemia): > 100 µM | TGI (NCI-H460 lung): > 100 µM | TGI (CCRF-CEM leukemia): > 100 µM | TGI (IGROV1 ovarian): > 100 µM | TGI (SNB-78 CNS): > 100 µM | TGI (LOX IMVI melanoma): > 100 µM | TGI (COLO 205 colon): > 100 µM | TGI (HT29 colon): > 100 µM | TGI (OVCAR-3 ovarian): > 100 µM | TGI (UACC-257 melanoma): > 100 µM | TGI (SF-295 CNS): > 100 µM | TGI (SK-MEL-5 melanoma): > 100 µM | TGI (EKVX NSCLC): > 100 µM | TGI (HOP-92 NSCLC): > 100 µM | TGI (SK-MEL-2 melanoma): > 100 µM | TGI (NCI-H226 lung): > 100 µM | TGI (U251 CNS): > 100 µM | TGI (KM12 colon): > 100 µM | TGI (TK-10 renal): > 100 µM | TGI (RPMI-8226 leukemia): > 100 µM | TGI (DMS 114 small cell lung): > 100 µM | TGI (HOP-62 NSCLC): > 100 µM | TGI (LXFL 529 NSCLC): > 100 µM | TGI (SF-268 CNS): > 100 µM | TGI (SN12C renal): > 100 µM | TGI (M19-MEL melanoma): > 100 µM | TGI (CAKI-1 renal): > 100 µM | TGI (ACHN renal): > 100 µM | TGI (OVCAR-5 ovarian): > 100 µM | TGI (RXF 393 renal): > 100 µM | TGI (HL-60(TB) leukemia): > 100 µM | TGI (HCT-15 colon): > 100 µM | TGI (KM20L2 colon): > 100 µM | TGI (HCC-2998 colon): > 100 µM | TGI (HOP-18 NSCLC): > 100 µM | TGI (NCI-H23 lung): > 100 µM

CN(C)C(=S)N=C(Nc1ccccc1)Nc1ccccc1
TGI (SNB-75 CNS): > 100 µM | TGI (SK-MEL-28 melanoma): > 100 µM | TGI (SK-OV-3 ovarian): > 100 µM | TGI (A498 renal): > 100 µM | TGI (M14 melanoma): > 100 µM | TGI (NCI-H522 lung): > 100 µM | TGI (K-562 leukemia): > 100 µM | TGI (SR leukemia): > 100 µM | TGI (SW-620 colon): > 100 µM | TGI (A549 NSCLC): > 100 µM | TGI (UACC-62 melanoma): > 100 µM | TGI (MALME-3M melanoma): > 100 µM | TGI (HCT-116 colon): > 100 µM | TGI (786-0 renal): > 100 µM | TGI (UO-31 renal): > 100 µM | TGI (OVCAR-8 ovarian): > 100 µM | TGI (SNB-19 CNS): > 100 µM | TGI (OVCAR-4 ovarian): > 100 µM | TGI (DMS 273 small cell lung): > 100 µM | TGI (MOLT-4 leukemia): > 100 µM | TGI (NCI-H460 lung): > 100 µM | TGI (CCRF-CEM leukemia): > 100 µM | TGI (IGROV1 ovarian): > 100 µM | TGI (SNB-78 CNS): > 100 µM | TGI (SF-539 CNS): > 100 µM | TGI (LOX IMVI melanoma): > 100 µM | TGI (COLO 205 colon): > 100 µM | TGI (HT29 colon): > 100 µM | TGI (OVCAR-3 ovarian): > 100 µM | TGI (UACC-257 melanoma): > 100 µM | TGI (SF-295 CNS): > 100 µM | TGI (SK-MEL-5 melanoma): > 100 µM | TGI (EKVX NSCLC): > 100 µM | TGI (HOP-92 NSCLC): > 100 µM | TGI (SK-MEL-2 melanoma): > 100 µM | TGI (NCI-H226 lung): > 100 µM | TGI (U251 CNS): > 100 µM | TGI (KM12 colon): > 100 µM | TGI (TK-10 renal): > 100 µM | TGI (RPMI-8226 leukemia): > 100 µM | TGI (DMS 114 small cell lung): > 100 µM | TGI (HOP-62 NSCLC): > 100 µM | TGI (SF-268 CNS): > 100 µM | TGI (SN12C renal): > 100 µM | TGI (M19-MEL melanoma): > 100 µM | TGI (CAKI-1 renal): > 100 µM | TGI (ACHN renal): > 100 µM | TGI (OVCAR-5 ovarian): > 100 µM | TGI (RXF 393 renal): > 100 µM | TGI (HL-60(TB) leukemia): > 100 µM | TGI (HCT-15 colon): > 100 µM | TGI (KM20L2 colon): > 100 µM | TGI (HCC-2998 colon): > 100 µM | TGI (NCI-H23 lung): > 100 µM

CCN(CC)CCSc1c2ccccc2nc2cc(NCC(=O)Nc3ccccc3-c3ccccc3NC(=O)CNc3ccc4c(SCCN(CC)CC)c5ccccc5nc4c3)ccc12
TGI (SNB-75 CNS): > 100 µM | TGI (SK-MEL-28 melanoma): > 100 µM | TGI (SK-OV-3 ovarian): > 100 µM | TGI (A498 renal): > 100 µM | TGI (M14 melanoma): > 100 µM | TGI (NCI-H522 lung): > 100 µM | TGI (K-562 leukemia): > 73.5 µM | TGI (SR leukemia): > 100 µM | TGI (SW-620 colon): > 100 µM | TGI (A549 NSCLC): > 100 µM | TGI (UACC-62 melanoma): > 100 µM | TGI (MALME-3M melanoma): > 100 µM | TGI (HCT-116 colon): > 100 µM | TGI (DLD-1 colon): > 100 µM | TGI (786-0 renal): > 100 µM | TGI (UO-31 renal): > 100 µM | TGI (OVCAR-8 ovarian): > 100 µM | TGI (SNB-19 CNS): > 100 µM | TGI (OVCAR-4 ovarian): > 100 µM | TGI (RXF-631 renal): > 100 µM | TGI (DMS 273 small cell lung): > 58.3 µM | TGI (MOLT-4 leukemia): > 76.9 µM | TGI (NCI-H460 lung): > 100 µM | TGI (CCRF-CEM leukemia): 96.9 µM | TGI (XF 498 CNS): > 100 µM | TGI (IGROV1 ovarian): > 100 µM | TGI (SF-539 CNS): > 100 µM | TGI (LOX IMVI melanoma): > 100 µM | TGI (COLO 205 colon): > 55.3 µM | TGI (HT29 colon): > 100 µM | TGI (OVCAR-3 ovarian): > 100 µM | TGI (UACC-257 melanoma): > 100 µM | TGI (SF-295 CNS): > 100 µM | TGI (SK-MEL-5 melanoma): > 100 µM | TGI (EKVX NSCLC): > 100 µM | TGI (HOP-92 NSCLC): > 100 µM | TGI (SK-MEL-2 melanoma): > 100 µM | TGI (NCI-H226 lung): > 100 µM | TGI (U251 CNS): > 100 µM | TGI (KM12 colon): > 100 µM | TGI (TK-10 renal): > 100 µM | TGI (RPMI-8226 leukemia): > 100 µM | TGI (HOP-62 NSCLC): > 100 µM | TGI (LXFL 529 NSCLC): > 100 µM | TGI (SF-268 CNS): > 100 µM | TGI (SN12C renal): > 100 µM | TGI (M19-MEL melanoma): > 54.7 µM | TGI (CAKI-1 renal): > 100 µM | TGI (ACHN renal): > 100 µM | TGI (OVCAR-5 ovarian): > 100 µM | TGI (RXF 393 renal): > 100 µM | TGI (HL-60(TB) leukemia): 49.3 µM | TGI (HCT-15 colon): > 100 µM | TGI (KM20L2 colon): > 100 µM | TGI (HCC-2998 colon): > 100 µM | TGI (HOP-18 NSCLC): > 100 µM | TGI (NCI-H23 lung): > 100 µM
